# In patent US20260294871A1, “PHARMACEUTICAL COMBINATIONS AND COMPOSITIONS THEREOF COMPRISING ANTIBACTERIAL AGENTS” (priority 2023, published 2026):
# Read-outs that look alike come from different tables or passages of the source.
# Legend:
# [1] = test system: P. aeruginosa; assay: Frequency of Resistance (FOR) Study, P. aeruginosa; format: cell-based; note: key: TMTC: To more to count
# Protocol: (§1) Objective: The in-vitro study was conducted to determine the frequency of resistance in 8 characterized isolates.
# (§2) • Isolates: 8 isolates-E. coli (3), K. pneumoniae (2), A. baumannii (1) and P. aeruginosa (2) • Compound tested: Meropenem; Meropenem Avibactam (4); Meropenem EDTA (10 mM); Meropenem Avibactam (4) EDTA (10 mM) • Antibiotic Concentration used: […]
# [2] = test system: A. baumannii; assay: Frequency of Resistance (FOR) Study, A. baumannii; note: key: TMTC: To more to count; format: cell-based; conditions: strain 8 - A. baumannii
# Protocol: as §1, §2
# [3] = test system: E. coli; conditions: cited from earlier work
# [4] = test system: K. pneumoniae; assay: MIC by broth microdilution against Klebsiella; format: cell-based, Klebsiella pneumoniae
# Protocol: (§3) In a typical study MIC tests were performed by broth microdilution in line with CLSI susceptibility testing standards. Bacterial inocula were prepared at ca. 1×10^6 CFU/mL by diluting 100-fold a 0.5 McFarland suspension in CA-MHB with TES. Microtiter plate wells containing 50 μL of antibacterial solutions at 2×the final concentrations were diluted 2-fold with 50 μL of inoculum to give a final inoculum of ca. 5×10^5 CFU/mL and desired test concentrations of antibacterial agents. Test microtiter plates were incubated according to CLSI guidelines and read visually. MIC values corresponded to the first well with no visible growth.
# The results of antibacterial activity of amikacin, Ceftazidime-avibactam, Ceftriaxone with sulbactam and EDTA, Meropenem and Meropenem with avibactam and EDTA against highly resistant strains of Klebsiella (93. 3% Mem NS) are given in Table 4.
# [5] = test system: Escherichia coli; assay: MIC by broth microdilution against E. coli; format: cell-based
# Protocol: as §3
# The results of antibacterial activity of amikacin, Ceftazidime-avibactam, Ceftriaxone with sulbactam and EDTA, Meropenem and Meropenem with avibactam and EDTA against highly resistant strains of Escherichia coli are given in Table 3. […] There was a marked improvement in antibacterial activity, compared to MEM alone, observed for the triple combination MEM/AVI [4 mg/L]/EDTA [10 mM] with a MIC90 at 0.004 μg/mL
# [6] = test system: E. coli; assay: Frequency of Resistance (FOR) Study, E. coli; format: cell-based
# Protocol: as §1, §2
smiles,measurement,setting,value
"C[C@@H](O)[C@H]1C(=O)N2C(C(=O)O)=C(S[C@@H]3CN[C@H](C(=O)N(C)C)C3)[C@H](C)[C@H]12 [Meropenem, (4R,5S,6S)-3-(((3S,5S)-5-(dimethylcarbamoyl)pyrrolidin-3-yl)thio)-6-((R)-1-hydroxyethyl)-4-methyl-7-oxo-1-azabicyclo[3.2.0]hept-2-ene-2-carboxylic acid]","count, 24 H of Incubation","[1]; strain 2 - P. aeruginosa, ATB concentration 4x",TMTC
same,"count, 24 H of Incubation","[1]; strain 2 - P. aeruginosa, ATB concentration 8x",TMTC
same,"count, 24 H of Incubation","[1]; strain 2 - P. aeruginosa, ATB concentration 16x",TMTC
same,"count, 24 H of Incubation","[1]; strain 3 - P. aeruginosa, ATB concentration 4x",TMTC
same,"count, 24 H of Incubation","[1]; strain 3 - P. aeruginosa, ATB concentration 8x",TMTC
same,"count, 24 H of Incubation","[1]; strain 3 - P. aeruginosa, ATB concentration 16x",TMTC
same,"count, 24 H of Incubation",[2]; ATB concentration 4x,TMTC
same,"count, 24 H of Incubation",[2]; ATB concentration 8x,TMTC
same,"count, 24 H of Incubation",[2]; ATB concentration 16x,TMTC
same,CLSI Range of MIC,[3],0.008 to 0.06 µg/mL
same,MIC50,"[4]; Klebsiella pneumoniae, MEM-NS isolates (n=112), read-out: MIC50",> 32 µg/mL
same,MIC90,"[4]; Klebsiella pneumoniae, highly resistant strains, read-out: MIC90",> 32 µg/mL
same,MIC90,[4]; MEM-NS isolates (n=112),> 32 µg/mL
same,MIC50,[4]; highly resistant strains,>32 µg/mL
same,MIC90,[4]; highly resistant strains,>32 µg/mL
same,MEM-NS isolates,"[4]; n=112, listed as MEM",93.3%
same,MIC50,"[5]; Escherichia coli, highly resistant strains, read-out: MIC50",> 32 µg/mL
same,MIC90,"[5]; Escherichia coli, highly resistant strains, read-out: MIC90",> 32 µg/mL
same,MIC50,[5]; MEM-NS isolates (n=105),> 32 µg/mL
same,MIC90,[5]; MEM-NS isolates (n=105),> 32 µg/mL
same,MIC50,[5]; highly resistant strains,>32 µg/mL
same,MIC90,[5]; highly resistant strains,>32 µg/mL
same,MEM-NS isolates,[5]; n=105,88.2%
same,"count, 24 H of Incubation","[6]; strain 1 - E. coli, ATB concentration 4x",0
same,"count, 24 H of Incubation","[6]; strain 1 - E. coli, ATB concentration 8x",0
same,"count, 24 H of Incubation","[6]; strain 1 - E. coli, ATB concentration 16x",0
same,"count, 24 H of Incubation","[6]; strain 4 - E. coli, ATB concentration 4x",TMTC
same,"count, 24 H of Incubation","[6]; strain 4 - E. coli, ATB concentration 8x",TMTC
same,"count, 24 H of Incubation","[6]; strain 4 - E. coli, ATB concentration 16x",TMTC
same,"count, 24 H of Incubation","[6]; strain 5 - E. coli, ATB concentration 4x",0
same,"count, 24 H of Incubation","[6]; strain 5 - E. coli, ATB concentration 8x",0
same,"count, 24 H of Incubation","[6]; strain 5 - E. coli, ATB concentration 16x",0
